Source: patent US20240383955A1, “MODIFIED ANTIMICROBIAL PEPTIDES” (priority 2021, published 2024)
Converted amounts (≈) assume the structure as drawn. Bridge positions count the residues as written; N and C are the ends. Square brackets hold non-standard residues; d marks the D form. Ends that are not written are not given here. Peptide text beside a SMILES is read from it. Dab = NCC[C@H](N)C(=O)O

Columns and labels:
Botrytis cinerea = details: Table 18
B. cinerea [1] = test: Semi-in planta drop inoculation assay on detached leaves of N. benthamiana, gray mold symptoms; assay type: in vivo, B. cinerea on N. benthamiana; details: 48 h; for effectiveness in reducing gray mold disease symptoms: peptide tested at 1.5 μM, 3 μM and 6 μM
B. cinerea [2] = test: In vitro antifungal activity (MIC) in SFM culture media, with or without added salts; details: SFM + 2 mM CaCl2; Table 10

Row | Molecule | MIC (SFM + 2 mM CaCl2) (Botrytis cinerea) [µM] | MIC (SFM + 100 mM KCl) (Botrytis cinerea) [µM] | MIC (SFM + 100 mM NaCl) (Botrytis cinerea) [µM] | MIC SFM (Botrytis cinerea) [µM] | gray mold symptoms (B. cinerea [1]; peptide at 3 μM and 6 μM) | further results
1 | C[C@H](NC(=O)CN)C(=O)N[C@H]1CSSC[C@@H](C(N)=O)NC(=O)[C@H](CCCCN)NC(=O)[C@H](CCCCN)NC(=O)[C@H](Cc2ccc(O)cc2)NC(=O)[C@H](Cc2c[nH]c3ccccc23)NC(=O)[C@H](Cc2ccccc2)NC(=O)[C@H](Cc2c[nH]c3ccccc23)NC(=O)[C@H](C)NC(=O)[C@H](Cc2ccccc2)NC(=O)CNC(=O)[C@H](Cc2ccccc2)NC(=O)CNC(=O)[C@H](CCC(N)=O)NC(=O)[C@H](CCCNC(=N)N)NC(=O)[C@H](Cc2c[nH]cn2)NC1=O [GMA5CA_V3] (H-GACHRQGFGFAWFWYKKC-NH2; disulfide 3-18) | >12 | >12 | >12 | 3 (≈ 6.57 µg/mL) | – | –
2 | CC(C)C[C@H](NC(=O)[C@H](CS)NC(=O)[C@H](C)NC(=O)CN)C(=O)N[C@@H](CCCCN)C(=O)N[C@@H](CC(N)=O)C(=O)N[C@@H](CCCNC(=N)N)C(=O)N[C@@H](Cc1c[nH]cn1)C(=O)N[C@@H](CO)C(=O)N[C@@H](CCCCN)C(=O)N[C@@H](Cc1c[nH]cn1)C(=O)N[C@@H](Cc1ccc(O)cc1)C(=O)NCC(=O)N[C@@H](CS)C(=O)N[C@@H](Cc1ccc(O)cc1)C(=O)N[C@@H](CS)C(=O)N[C@@H](Cc1ccc(O)cc1)C(=O)N[C@@H](Cc1ccc(O)cc1)C(=O)N[C@@H](CCCNC(=N)N)C(=O)N[C@@H](Cc1c[nH]cn1)C(=O)N[C@@H](CS)C(=O)N[C@@H](Cc1ccc(O)cc1)C(N)=O [GMAOe1C_WT, reference compound] (H-GACLKNRHSKHYGCYCYYRHCY-NH2; N-terminus assumed) | – | – | – | – | – | effectiveness in reducing gray mold disease symptoms (B. cinerea [1]): only effective at 6 μM
3 | CC(C)C[C@@H]1NC(=O)[C@@H](NC(=O)[C@H](C)NC(=O)CN)CSSC[C@@H](C(=O)N[C@@H](Cc2ccc(O)cc2)C(N)=O)NC(=O)[C@H](Cc2c[nH]cn2)NC(=O)[C@H](CCCNC(=N)N)NC(=O)[C@H](Cc2ccc(O)cc2)NC(=O)[C@H](Cc2ccc(O)cc2)NC(=O)[C@H](Cc2c[nH]c3ccccc23)NC(=O)[C@H](Cc2ccccc2)NC(=O)[C@H](Cc2c[nH]c3ccccc23)NC(=O)CNC(=O)[C@H](Cc2ccc(O)cc2)NC(=O)[C@H](Cc2c[nH]cn2)NC(=O)[C@H](CCCCN)NC(=O)[C@H](CO)NC(=O)[C@H](Cc2c[nH]cn2)NC(=O)[C@H](CCCNC(=N)N)NC(=O)[C@H](CC(N)=O)NC(=O)[C@H](CCCCN)NC1=O [GMAOe1C_V3] (H-GACLKNRHSKHYGWFWYYRHCY-NH2; disulfide 3-21) | 3 to 6 | 6 to 12 | 2 to 3 | 1.5 (≈ 4.31 µg/mL) | completely abrogated gray mold symptoms | reducing the symptoms of gray mold, comparison of peptides (B. cinerea [1]; peptide at 1.5 μM): more effective than GMAOe1C_V4 or GMAOe1C_WT
4 | CC[C@H](C)[C@H](NC(=O)[C@H](CCCNC(=N)N)NC(=O)[C@H](CS)NC(=O)[C@H](CCCNC(=N)N)NC(=O)CNC(=O)[C@@H](N)CO)C(=O)N[C@@H](CC(C)C)C(=O)N[C@@H](Cc1ccccc1)C(=O)N[C@@H](CCCNC(=N)N)C(=O)N[C@@H](CS)C(=O)N[C@@H](Cc1ccccc1)C(=O)N[C@@H](CS)C(=O)N[C@H](C(=O)N[C@@H](CCCCN)C(=O)N[C@@H](CC(N)=O)C(=O)N[C@@H](CS)C(N)=O)[C@@H](C)O [GMA1C_V1] (H-SGRCRILFRCFCTKNC-NH2; N-terminus assumed) | – | – | – | – | – | gray mold symptoms (B. cinerea [1]): failed to reduce disease symptoms
5 | GACLKNRHSKHYGWFWYYRHCY-NH2 (disulfide 3-21 (inferred)) [GMAOe1C_V2] | – | – | – | – | completely abrogated gray mold symptoms | –
6 | C[C@H](NC(=O)CN)C(=O)N[C@H]1CSSC[C@@H](C(N)=O)NC(=O)[C@H](CCCCN)NC(=O)[C@H](CCCCN)NC(=O)[C@H](Cc2ccc(O)cc2)NC(=O)[C@H](Cc2ccccc2)NC(=O)[C@H](Cc2ccccc2)NC(=O)[C@H](Cc2ccccc2)NC(=O)[C@H](C)NC(=O)[C@H](Cc2ccccc2)NC(=O)CNC(=O)[C@H](Cc2ccccc2)NC(=O)CNC(=O)[C@H](CCC(N)=O)NC(=O)[C@H](CCCNC(=N)N)NC(=O)[C@H](Cc2c[nH]cn2)NC1=O [GMA5CA_V4] (H-GACHRQGFGFAFFFYKKC-NH2; disulfide 3-18) | >12 | >12 | >12 | 3 (≈ 6.33 µg/mL) | – | –
7 | CC[C@H](C)[C@@H]1NC(=O)[C@H](CCCNC(=N)N)NC(=O)[C@@H](NC(=O)[C@H](CCCNC(=N)N)NC(=O)CNC(=O)[C@@H](N)CO)CSSC[C@@H](C(N)=O)NC(=O)[C@H](CC(N)=O)NC(=O)[C@H](CCCCN)NC(=O)[C@H]([C@@H](C)O)NC(=O)[C@H](Cc2ccccc2)NC(=O)[C@H](Cc2ccc(O)cc2)NC(=O)[C@H](Cc2c[nH]c3ccccc23)NC(=O)[C@H](CCCNC(=N)N)NC(=O)[C@H](Cc2ccccc2)NC(=O)[C@H](CC(C)C)NC1=O [GMA1C_V3] (H-SGRCRILFRWYFTKNC-NH2; disulfide 4-16) | 6 | >12 | 3 | 1.5 (≈ 3.07 µg/mL) | – | –
8 | CC[C@H](C)[C@@H]1NC(=O)[C@H](CCCNC(=N)N)NC(=O)[C@@H](NC(=O)[C@H](CCCNC(=N)N)NC(=O)CNC(=O)[C@@H](N)CO)CSSC[C@@H](C(N)=O)NC(=O)[C@H](CC(N)=O)NC(=O)[C@H](CCCCN)NC(=O)[C@H]([C@@H](C)O)NC(=O)[C@H](Cc2c[nH]c3ccccc23)NC(=O)[C@H](Cc2ccccc2)NC(=O)[C@H](Cc2c[nH]c3ccccc23)NC(=O)[C@H](CCCNC(=N)N)NC(=O)[C@H](Cc2ccccc2)NC(=O)[C@H](CC(C)C)NC1=O [GMA1C_V2] (H-SGRCRILFRWFWTKNC-NH2; disulfide 4-16) | 3 | >12 | 3 | 1.5 to 3 | completely abrogated gray mold symptoms | reducing the symptoms of gray mold, comparison of peptides (B. cinerea [1]; peptide at 1.5 μM): more effective than GMA1C_V1
9 | C[C@@H](O)[C@H](NC(=O)[C@H](CS)NC(=O)[C@H](Cc1ccccc1)NC(=O)[C@H](CS)NC(=O)[C@H](CCCNC(=N)N)NC(=O)[C@H](CCCNC(=N)N)NC(=O)[C@H](CCCNC(=N)N)NC(=O)[C@H](Cc1ccccc1)NC(=O)CNC(=O)[C@H](CCCNC(=N)N)NC(=O)[C@H](CS)NC(=O)[C@H](CCCNC(=N)N)NC(=O)CN)C(=O)N[C@H](C(=O)N[C@@H](Cc1c[nH]cn1)C(=O)N[C@@H](CS)C(=O)O)[C@@H](C)O [GMA4AC] (H-GRCRGFRRRCFCTTHC-OH; N-terminus and C-terminus assumed) | – | – | – | – | – | MIC Fusarium graminearum (F. graminearum): 6 µM (≈ 11.8 µg/mL)
10 | CC[C@H](C)[C@@H]1NC(=O)[C@H](CCCNC(=N)N)NC(=O)[C@H]([C@@H](C)O)NC(=O)[C@H](Cc2ccccc2)NC(=O)[C@H](Cc2c[nH]c3ccccc23)NC(=O)[C@H](Cc2ccccc2)NC(=O)[C@H](CCCNC(=N)N)NC(=O)[C@H](CCCNC(=N)N)NC(=O)[C@H](CC(C)C)NC(=O)[C@H](Cc2ccccc2)NC(=O)CNC(=O)[C@H](CCCCN)NC(=O)[C@@H](NC(=O)[C@H](CCCNC(=N)N)NC(=O)CNC(=O)CN)CSSC[C@@H](C(N)=O)NC1=O [GMA4C_V9] (H-GGRCKGFLRRFWFTRIC-NH2; disulfide 4-17) | 12 | 6 to 12 | 3 | 3 (≈ 6.3 µg/mL) | – | effectiveness in reducing gray mold disease symptoms (B. cinerea [1]): effective in reducing gray mold disease symptoms
11 | CC[C@H](C)[C@@H]1NC(=O)[C@H](CCCNC(=N)N)NC(=O)[C@H]([C@@H](C)O)NC(=O)[C@H](Cc2c[nH]c3ccccc23)NC(=O)[C@H](Cc2ccc(O)cc2)NC(=O)[C@H](Cc2c[nH]c3ccccc23)NC(=O)[C@H](CCCNC(=N)N)NC(=O)[C@H](CCCNC(=N)N)NC(=O)[C@H](CCCNC(=N)N)NC(=O)[C@H](Cc2ccccc2)NC(=O)CNC(=O)[C@H](CCCCN)NC(=O)[C@@H](NC(=O)[C@H](CCCNC(=N)N)NC(=O)CNC(=O)CN)CSSC[C@@H](C(N)=O)NC1=O [GMA4C_V10] (H-GGRCKGFRRRWYWTRIC-NH2; disulfide 4-17; N-terminus assumed) | 3 | 3 to 6 | 3 | 3 (≈ 6.6 µg/mL) | – | reducing the symptoms of gray mold, comparison of peptides (B. cinerea [1]; peptide at 1.5 μM and 3 μM): more effective in reducing the symptoms of gray mold than GMA4C_V9; gray mold symptoms (B. cinerea [1]; peptide at 6 μM): completely abrogates gray mold symptoms; effectiveness in reducing gray mold disease symptoms (B. cinerea [1]): effective in reducing gray mold disease symptoms
12 | CC(C)C[C@@H]1NC(=O)[C@@H](NC(=O)[C@H](C)NC(=O)CN)CSSC[C@@H](C(=O)N[C@@H](Cc2ccc(O)cc2)C(N)=O)NC(=O)[C@H](Cc2c[nH]cn2)NC(=O)[C@H](CCCNC(=N)N)NC(=O)[C@H](Cc2ccc(O)cc2)NC(=O)[C@H](Cc2ccc(O)cc2)NC(=O)[C@H](Cc2c[nH]c3ccccc23)NC(=O)[C@H](Cc2ccccc2)NC(=O)[C@H](Cc2ccccc2)NC(=O)CNC(=O)[C@H](Cc2ccc(O)cc2)NC(=O)[C@H](Cc2c[nH]cn2)NC(=O)[C@H](CCCCN)NC(=O)[C@H](CO)NC(=O)[C@H](Cc2c[nH]cn2)NC(=O)[C@H](CCCNC(=N)N)NC(=O)[C@H](CC(N)=O)NC(=O)[C@H](CCCCN)NC1=O [GMAOe1C_V4] (H-GACLKNRHSKHYGFFWYYRHCY-NH2; disulfide 3-21) | 6 to 12 | 6 to 12 | 6 | 1.5 (≈ 4.25 µg/mL) | completely abrogated gray mold symptoms | –
13 | NCC[C@H](NC(=O)CNC(=O)[C@@H](N)Cc1ccccc1)C(=O)N[C@@H](CS)C(=O)N[C@@H](CCN)C(=O)NCC(=O)N[C@@H](Cc1ccccc1)C(=O)N[C@@H](CCN)C(=O)N[C@@H](CCN)C(=O)N[C@@H](CCN)C(=O)N[C@@H](CS)C(=O)N[C@@H](Cc1ccccc1)C(=O)N[C@@H](CS)C(=O)N[C@@H](Cc1c[nH]c2ccccc12)C(=O)N[C@@H](CCN)C(=O)N[C@@H](Cc1c[nH]c2ccccc12)C(=O)N[C@@H](CS)C(=O)O [GMA4C_V5, FG(Dab)C(Dab)GF(Dab)(Dab)(Dab)CFCW(Dab)WC] (H-FG[Dab]C[Dab]GF[Dab][Dab][Dab]CFCW[Dab]WC-OH; N-terminus assumed) | – | – | – | – | – | SFM + 2 mM CaCl2 MIC (B. cinerea [2]): >6 (very μM
